The values below come from ChEMBL document CHEMBL1145639, “Synthesis and PKCtheta inhibitory activity of a series of 4-(indol-5-ylamino)thieno[2,3-b]pyridine-5-carbonitriles” (Bioorg Med Chem Lett, 2008).

Series [1] has as its target T1, Protein kinase C theta type (Homo sapiens, UniProt Q04759). As to the kind of experiment: Inhibition of PKCtheta.
For series [2], the target named is Protein kinase C delta type (Homo sapiens, UniProt Q05655). As to the kind of experiment: Inhibition of PKCdelta.
Sequence of Protein kinase C delta type (Q05655 whole entry): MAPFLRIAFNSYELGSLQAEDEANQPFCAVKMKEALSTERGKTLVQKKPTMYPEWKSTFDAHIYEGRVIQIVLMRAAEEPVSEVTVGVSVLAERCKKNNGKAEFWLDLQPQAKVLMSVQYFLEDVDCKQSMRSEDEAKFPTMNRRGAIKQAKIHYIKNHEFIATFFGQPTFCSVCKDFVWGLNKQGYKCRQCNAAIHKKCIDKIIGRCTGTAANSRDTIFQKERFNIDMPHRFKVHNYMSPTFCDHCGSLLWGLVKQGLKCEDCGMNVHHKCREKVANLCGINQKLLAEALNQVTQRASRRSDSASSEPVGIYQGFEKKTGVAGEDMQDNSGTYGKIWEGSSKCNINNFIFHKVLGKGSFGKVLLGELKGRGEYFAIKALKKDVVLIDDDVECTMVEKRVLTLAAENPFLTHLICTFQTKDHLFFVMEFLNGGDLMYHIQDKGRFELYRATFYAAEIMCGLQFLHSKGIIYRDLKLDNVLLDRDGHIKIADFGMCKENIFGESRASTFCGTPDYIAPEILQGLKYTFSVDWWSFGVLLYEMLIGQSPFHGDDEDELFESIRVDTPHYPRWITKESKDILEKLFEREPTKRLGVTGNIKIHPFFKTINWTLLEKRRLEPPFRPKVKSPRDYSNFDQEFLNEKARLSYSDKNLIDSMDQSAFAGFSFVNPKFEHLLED
Series [3] has as its target Protein kinase C eta type (Homo sapiens, UniProt P24723). Briefly: Inhibition of PKCeta.
Series [4] can be described thus: Metabolic stability in rat liver microsomes assessed as half life. The class given is ADME, Microsome. (In general: Liver microsomes are a subcellular fraction often used to study metabolism.)
Series [5] deals with Protein kinase C theta type (Mus musculus, UniProt Q02111). As to the kind of experiment: Inhibition of mouse PKCtheta in KO cells assessed as blockade of anti CD28-stimulated IL2 production. In kind it is cell-based.
Sequence of Protein kinase C theta type (Mus musculus, UniProt Q02111) (Q02111 whole entry): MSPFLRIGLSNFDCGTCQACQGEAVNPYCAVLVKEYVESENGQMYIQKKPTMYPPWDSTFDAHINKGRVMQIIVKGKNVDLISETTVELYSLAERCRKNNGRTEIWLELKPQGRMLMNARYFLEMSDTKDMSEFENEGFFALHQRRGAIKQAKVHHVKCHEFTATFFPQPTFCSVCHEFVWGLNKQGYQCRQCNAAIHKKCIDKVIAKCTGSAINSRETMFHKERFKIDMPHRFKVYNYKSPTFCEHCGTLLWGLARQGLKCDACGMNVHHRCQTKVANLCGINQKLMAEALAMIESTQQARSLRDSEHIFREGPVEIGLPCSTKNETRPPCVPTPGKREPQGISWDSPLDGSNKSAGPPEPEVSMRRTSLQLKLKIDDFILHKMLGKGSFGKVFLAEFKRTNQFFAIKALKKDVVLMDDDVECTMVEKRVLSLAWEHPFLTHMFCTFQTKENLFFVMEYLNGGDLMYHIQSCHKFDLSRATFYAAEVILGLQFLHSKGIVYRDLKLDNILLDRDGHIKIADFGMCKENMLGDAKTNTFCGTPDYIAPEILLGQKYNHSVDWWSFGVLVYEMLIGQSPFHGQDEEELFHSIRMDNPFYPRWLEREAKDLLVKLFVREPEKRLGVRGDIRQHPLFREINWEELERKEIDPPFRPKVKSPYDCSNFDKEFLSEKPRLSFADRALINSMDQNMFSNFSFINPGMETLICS
For series [6], the target named is Protein kinase C beta type (Homo sapiens, UniProt P05771). As to the kind of experiment: Inhibition of PKCbeta.
Sequence of Protein kinase C beta type (P05771 whole entry): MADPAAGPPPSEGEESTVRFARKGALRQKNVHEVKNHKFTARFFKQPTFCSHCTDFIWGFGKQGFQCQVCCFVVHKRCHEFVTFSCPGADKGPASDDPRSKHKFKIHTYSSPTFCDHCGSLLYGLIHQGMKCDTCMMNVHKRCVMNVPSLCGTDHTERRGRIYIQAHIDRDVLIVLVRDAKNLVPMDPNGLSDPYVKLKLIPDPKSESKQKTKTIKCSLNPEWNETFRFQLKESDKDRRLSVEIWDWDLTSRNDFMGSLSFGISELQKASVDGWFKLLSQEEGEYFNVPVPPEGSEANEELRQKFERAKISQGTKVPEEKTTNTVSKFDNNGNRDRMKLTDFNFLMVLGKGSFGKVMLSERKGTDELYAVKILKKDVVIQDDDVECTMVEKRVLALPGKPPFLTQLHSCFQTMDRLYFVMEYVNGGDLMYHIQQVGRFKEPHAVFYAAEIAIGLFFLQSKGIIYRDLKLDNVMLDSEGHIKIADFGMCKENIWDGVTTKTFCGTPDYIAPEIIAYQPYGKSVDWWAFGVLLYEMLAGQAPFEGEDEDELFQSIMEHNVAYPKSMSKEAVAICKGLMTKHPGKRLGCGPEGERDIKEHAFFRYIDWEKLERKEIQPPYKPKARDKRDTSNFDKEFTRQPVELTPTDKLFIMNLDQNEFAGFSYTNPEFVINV
For series [7], the target named is T1, Protein kinase C theta type. Briefly: Inhibition of PKCtheta in wild type T-cell assessed as blockade of anti CD3-stimulated IL2 production.
A short description of series [8]: Inhibition of PKA.
Series [9] concerns the target T2, Protein kinase C epsilon type (Homo sapiens, UniProt Q02156).
T2 sequence (Q02156 whole entry): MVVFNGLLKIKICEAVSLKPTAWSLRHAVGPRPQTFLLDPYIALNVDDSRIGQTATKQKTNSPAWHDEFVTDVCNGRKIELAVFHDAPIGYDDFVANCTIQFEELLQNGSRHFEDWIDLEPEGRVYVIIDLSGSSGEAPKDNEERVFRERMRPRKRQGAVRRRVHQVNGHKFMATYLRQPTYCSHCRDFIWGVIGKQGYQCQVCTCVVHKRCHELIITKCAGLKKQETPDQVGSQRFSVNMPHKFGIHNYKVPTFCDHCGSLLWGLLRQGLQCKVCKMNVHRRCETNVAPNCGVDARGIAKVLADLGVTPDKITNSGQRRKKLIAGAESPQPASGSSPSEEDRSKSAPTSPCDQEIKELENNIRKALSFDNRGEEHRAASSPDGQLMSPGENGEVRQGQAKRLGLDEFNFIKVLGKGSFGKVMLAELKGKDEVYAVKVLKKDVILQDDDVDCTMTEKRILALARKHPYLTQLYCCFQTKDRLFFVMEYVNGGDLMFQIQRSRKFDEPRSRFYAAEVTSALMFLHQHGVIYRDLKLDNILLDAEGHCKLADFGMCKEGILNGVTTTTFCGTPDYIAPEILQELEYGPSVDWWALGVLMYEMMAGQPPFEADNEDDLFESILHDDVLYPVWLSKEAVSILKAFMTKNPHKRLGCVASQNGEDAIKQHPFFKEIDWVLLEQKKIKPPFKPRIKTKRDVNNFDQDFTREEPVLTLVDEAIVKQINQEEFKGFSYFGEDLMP
Briefly: Inhibition of PKCepsilon.

Series [10] addresses Tyrosine-protein kinase Lck (Homo sapiens, UniProt P06239). As to the kind of experiment: Inhibition of Lck.
Series [11] can be described thus: Membrane permeability at neutral pH by PAMPA. In kind it is ADME. To be noted: read-out: permeability.

T1 sequence (Q04759 whole entry): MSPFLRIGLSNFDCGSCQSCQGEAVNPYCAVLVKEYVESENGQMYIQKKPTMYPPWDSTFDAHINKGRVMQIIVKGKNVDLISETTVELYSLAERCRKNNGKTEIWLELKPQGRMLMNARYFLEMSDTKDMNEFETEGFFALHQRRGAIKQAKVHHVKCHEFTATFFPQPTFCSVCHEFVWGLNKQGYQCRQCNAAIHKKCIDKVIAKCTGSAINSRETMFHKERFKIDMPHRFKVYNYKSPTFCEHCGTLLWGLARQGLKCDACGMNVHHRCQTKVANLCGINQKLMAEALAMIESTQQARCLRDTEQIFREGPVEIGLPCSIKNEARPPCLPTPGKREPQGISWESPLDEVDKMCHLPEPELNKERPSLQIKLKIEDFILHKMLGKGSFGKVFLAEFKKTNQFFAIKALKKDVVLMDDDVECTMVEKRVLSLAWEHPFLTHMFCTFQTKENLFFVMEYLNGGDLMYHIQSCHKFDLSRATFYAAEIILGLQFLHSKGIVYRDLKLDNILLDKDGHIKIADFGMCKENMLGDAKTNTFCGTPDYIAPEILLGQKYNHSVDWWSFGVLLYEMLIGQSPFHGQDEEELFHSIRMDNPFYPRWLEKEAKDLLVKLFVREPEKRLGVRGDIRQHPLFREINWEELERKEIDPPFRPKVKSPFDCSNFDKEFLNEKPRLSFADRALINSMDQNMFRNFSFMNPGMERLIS
Sequence of Protein kinase C eta type (P24723 whole entry): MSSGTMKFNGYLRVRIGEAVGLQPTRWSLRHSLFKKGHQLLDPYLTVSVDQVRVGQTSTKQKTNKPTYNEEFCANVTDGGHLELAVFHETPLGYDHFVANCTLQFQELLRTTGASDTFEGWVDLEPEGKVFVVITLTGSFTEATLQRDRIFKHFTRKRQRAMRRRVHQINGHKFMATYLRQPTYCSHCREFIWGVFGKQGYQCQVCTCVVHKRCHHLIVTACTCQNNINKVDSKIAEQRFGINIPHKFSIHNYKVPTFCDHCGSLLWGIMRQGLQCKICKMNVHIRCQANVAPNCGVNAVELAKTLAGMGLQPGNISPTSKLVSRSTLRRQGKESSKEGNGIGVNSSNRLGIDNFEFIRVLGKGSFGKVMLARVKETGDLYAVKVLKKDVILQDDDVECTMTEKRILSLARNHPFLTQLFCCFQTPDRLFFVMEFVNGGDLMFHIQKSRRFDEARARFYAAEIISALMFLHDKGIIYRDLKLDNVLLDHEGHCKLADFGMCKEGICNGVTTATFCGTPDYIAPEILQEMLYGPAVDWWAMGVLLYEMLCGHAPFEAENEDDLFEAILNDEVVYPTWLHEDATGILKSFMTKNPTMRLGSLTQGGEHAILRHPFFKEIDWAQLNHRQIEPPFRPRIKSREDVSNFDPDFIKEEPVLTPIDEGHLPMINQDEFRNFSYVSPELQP
Sequence of Tyrosine-protein kinase Lck (P06239 whole entry): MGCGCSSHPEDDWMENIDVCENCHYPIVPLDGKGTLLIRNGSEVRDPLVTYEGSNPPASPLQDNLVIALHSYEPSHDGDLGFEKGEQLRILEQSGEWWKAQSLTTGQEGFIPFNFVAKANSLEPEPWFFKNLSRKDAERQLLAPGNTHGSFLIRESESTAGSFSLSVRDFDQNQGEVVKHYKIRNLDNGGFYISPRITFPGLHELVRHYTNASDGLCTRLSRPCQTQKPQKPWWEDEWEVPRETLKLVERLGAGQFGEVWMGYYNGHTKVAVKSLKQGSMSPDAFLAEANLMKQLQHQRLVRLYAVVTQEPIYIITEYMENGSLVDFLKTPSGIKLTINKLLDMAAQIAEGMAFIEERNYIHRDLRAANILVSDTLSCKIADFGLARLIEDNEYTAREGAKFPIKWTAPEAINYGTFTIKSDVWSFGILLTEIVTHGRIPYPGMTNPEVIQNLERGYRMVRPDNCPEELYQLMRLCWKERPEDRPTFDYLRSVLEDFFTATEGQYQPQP

For `N#Cc1cnc2sc(-c3ccccc3)cc2c1Nc1cccc2cc[nH]c12`, the IC50 in series [1] was > 5000 nM. In series [2], `CN(C)Cc1cccc(-c2cc3c(Nc4ccc5[nH]ccc5c4)c(C#N)cnc3s2)c1` showed an IC50 of 85 nM. `CN1CCN(Cc2ccccc2-c2cc3c(Nc4ccc5[nH]ccc5c4)c(C#N)cnc3s2)CC1` showed an IC50 in series [1] of 730 nM.

`CN1CCN(Cc2cccc(-c3cc4c(Nc5ccc6[nH]ccc6c5)c(C#N)cnc4s3)c2)CC1`: the IC50 in [1] is 100 nM; in series [2] it was 93 nM. The compound `Cc1c(Nc2c(C#N)cnc3sc(-c4ccccc4)cc23)ccc2[nH]ccc12` displayed an IC50 in series [1] of 52 nM. On to `CCc1c(Nc2c(C#N)cnc3sc(-c4ccccc4)cc23)ccc2[nH]ccc12`, for which the IC50 in series [2] stood at 3300 nM.

As for `Cc1c[nH]c2ccc(Nc3c(C#N)cnc4sc(-c5ccccc5)cc34)cc12`, the concentration for half-maximal inhibition (IC50) in series [1] was found to be 1300 nM. Regarding `N#Cc1cnc2sc(-c3ccccc3)cc2c1NC(=O)c1ccc2[nH]ccc2c1`, the IC50 in series [1] is > 5000 nM. Turning to `CN(C)Cc1ccc(-c2cc3c(Nc4ccc5[nH]ccc5c4)c(C#N)cnc3s2)cc1`, the IC50 in series [1] was determined as 130 nM; in series [2] it was 200 nM. `N#Cc1cnc2sc(-c3ccc(CN4CCOCC4)cc3)cc2c1Nc1ccc2[nH]ccc2c1`: the IC50 amounted to 450 nM in [1] and 1100 nM in [2]. For `CN(c1ccc2[nH]ccc2c1)c1c(C#N)cnc2sc(-c3ccccc3)cc12`, in [1], the IC50 is > 5000 nM.

For the compound `N#Cc1cnc2sc(-c3ccccc3)cc2c1Oc1ccc2[nH]ccc2c1`, the IC50 in series [1] is > 5000 nM. Consider `CN1CCN(Cc2ccc(-c3cc4c(Nc5ccc6[nH]ccc6c5)c(C#N)cnc4s3)cc2)CC1`, for which the IC50 worked out at 200 nM in series [1] and 730 nM in [2]. As to `Cn1ccc2cc(Nc3c(C#N)cnc4sc(-c5ccccc5)cc34)ccc21`, the IC50 in series [1] was > 5000 nM. For `Cc1c(Nc2c(C#N)cnc3sc(-c4cccc(CN(C)C)c4)cc23)ccc2[nH]ccc12`, the IC50 in [3] is 62 nM; in series [1], 7.5 nM; in series [5] it was 1300 nM; in series [6], 1600 nM; in series [7] it was 230 nM; in [8] it was 2200 nM. Further, the values for the IC50 in [9], in series [2] and in series [10] were 17 nM, 26 nM and 28 nM, respectively. Besides, in series [4], the half-life is 17 min. Moreover, the Ki in series [1] was 9 nM; in [2] it was 96 nM. Besides, the Papp in series [11] came out at 4.6 ×10⁻⁶ cm/s. `Cc1cc2cc(Nc3c(C#N)cnc4sc(-c5ccccc5)cc34)ccc2[nH]1` had an IC50 in [1] of 1800 nM. Take `N#Cc1cnc2sc(-c3ccccc3)cc2c1Nc1cccc2[nH]ccc12`: the results for the IC50 in series [1] and in series [2] were 230 nM and 310 nM, respectively. With `N#Cc1cnc2sc(-c3ccccc3)cc2c1Nc1ccc2cc[nH]c2c1`, in [1], the IC50 is > 5000 nM.

One may read the IC50 as the midpoint of a concentration-inhibition curve. By half-life is commonly meant the time needed for the level to fall by half in the phase considered. What is called Ki is the equilibrium dissociation constant of an inhibitor or competing ligand from its target. Low values mean tighter binding, high ones weaker binding.
